Data published in PMC12866179, “Oxidized MIF is an Alzheimer’s disease drug target relaying external risk factors to tau pathology” (Cell Reports Medicine, 2025).

Assay: in vivo
Parameters: species or system Sprague Dawley rats
Method: Studies investigating the pharmacokinetics of PAV-617 were performed by Vipragen Biosciences Inc in […]. The animal care committee approval numbers for the studies are: M-Tox: VIP/IAEC/41/2016 and PK: VIP/IAEC/316/2021. […]
(C) Pharmacokinetic assessment of PAV-61 7 in Sprague Da wley ra ts (S D). Ma le SD ra ts (n=4) we re dosed via three ro utes na me ly intravenous (IV )- 1 mg/kg, (IP )- 5 mg/kg an d per ora l (P O)- 5 mg/kg. Plasma concentration wa s anal yzed at di ff e ren t time intervals. Pharmacokinetic pa ra met e rs we re de t erm ine d usi ng Win No nlin . Cma x (p ea k pl asma concentration) achieved through IV wa s 12 8 ng / mL, IP wa s 36 2. 6 ng / mL an d PO wa s 15 1. 1 ng / mL at Tmax (time of pe ak concentration obser ved) 1 h, 0. 5 h an d 4 h respectively. Co mpo un d PAV-61 7 ha s mo de rate t1/2 (ter min al ha lf-life ) through IV- 7. 8 h, IP- 7 h an d PO- 3. 3 h. CL (steady-state clearance) wa s found to be mo de rate- 20 mL /m in/kg which wa s 2. 7 5 times lo wer than ra t liver bl oo d flow . Vz (volum e of di str ibuti on) wa s found to be hi gh- 12 . 7 L/kg an d F (fracti on bi oavailabi lity) wa s found to be ver y go od through IP- 80 % an d mo de rate through PO- 41 % . […]

[1] = male, Sprague-Dawley, rat, ip, 5 mg/kg
[2] = male, Sprague-Dawley, rat, iv, 1 mg/kg
[3] = male, Sprague-Dawley, rat, po, 5 mg/kg

Q: For `[I-].c1cc2nc3ccc(N4CCCC4)cc3[s+]c2cc1N1CCCC1` [PAV-617, 3,7-Di(pyrrolidine-1-yl)phenothiazine-5-ium iodide], which “CL, times lower than rat liver blood flow” value (male, Sprague-Dawley) is on record?
A: 2. 7 5 times

Q: And the Vd (male, Sprague-Dawley, rat)?
A: 12.7 L/kg

Q: What about the Tmax [1] of the same compound?
A: 0.5 h

Q: And the bioavailability [1]?
A: 80%

Q: And the half-life [1]?
A: 420 min

Q: And the Tmax [2]?
A: 1 h

Q: What about the half-life [2] of the same compound?
A: 468 min

Q: And the Tmax [3]?
A: 4 h

Q: What about the bioavailability [3] of the same compound?
A: 41%

Q: What about the half-life [3] of the same compound?
A: 198 min

Q: And the “bioavailability following intraperitoneal administration” value (rat, ip)?
A: high bioavailability

Q: And the “Cmax (peak plasma concentration), IP” value (rat, ip, 5 mg/kg)?
A: 36 2. 6 ng/mL

Q: What about the “Cmax (peak plasma concentration), IV” value (rat, iv, 1 mg/kg) of the same compound?
A: 12 8 ng/mL

Q: And the “Cmax (peak plasma concentration), PO” value (rat, po, 5 mg/kg)?
A: 15 1. 1 ng/mL
